Measurements as given in US8183206B2, “Drugs comprising combination of antithrombotic agent with pyrazolone derivative” (Mitsubishi Tanabe Pharma Corporation, priority 2001, dated 2012).

How the values were obtained:
[1] = test system: patients diagnosed as cerebral infarction; test: Function prognosis by modified ranking scale in cerebral infarction patients (Example 2); assay type: in vivo, human; conditions: on leaving hospital within 1 month after start of administration
Description: Administration amount and method are shown below.
Sodium ozagrel: 80 mg of sodium ozagrel was dissolved in an adequate amount of an electrolyte solution or carbohydrate solution and the resulting solution was intravenously administered constantly for 2 weeks, twice daily, that is, in the morning and evening, each over 2 hours.
(§1) Argatroban: For the first two days, 60 mg/120 ml of argatroban was diluted with an adequate amount of a transfusion fluid and the resulting solution was intravenously infused constantly over 24 hours. For the following 5 days, 10 mg/20 ml of argatroban was diluted with an adequate amount of a transfusion fluid and the resulting solution was intravenously infused twice daily, that is, in the morning and evening, each over 3 hours.
Sodium ozagrel+edaravone: 80 mg of sodium ozagrel was dissolved in an adequate amount of an electrolyte solution or carbohydrate solution and the resulting solution was intravenously administered constantly for 2 weeks, twice daily, that is, in the morning and evening, each over 2 hours. At the same time, 30 mg/20 ml of edaravone was diluted with an adequate amount of physiological saline and the resulting solution was intravenously infused for 2 weeks, twice daily, that is, in the morning and evening, each over 20 minutes.
as §1, with “Argatroban+edaravone: For” for “Argatroban: For”, “3 hours; and at the same time, 30 mg/20 ml of edaravone was diluted with an adequate amount of physiological saline and the resulting solution was intravenously infused for 2 weeks twice daily, that is, in the morning and evening, each over 30 minutes.” for “3 hours.”
In the above-described table, what the meaning of grade will be explained briefly. Grade 0: no symptoms, Grade 1: some symptoms but non-significant disability (able to carry out all daily activities and affairs), Grade 2: slight disability (unable to carry out all previous activities but able to look after own affairs without assistance), Grade 3: moderate disability (requiring some help, but able to walk without assistance), Grade 4: relatively severe disability (requiring assistance for walk or daily activities), Grade 5: very severe disability (bedridden, incontinence and requiring constant nursing care and attention), Grade 6: death.

Wistar rat = test: Influence of t-PA on the bleeding time (tail transection, anesthetized rats); assay type: in vivo; conditions: for Bleeding time: urethane anesthesia, t-PA 1 mg/kg constant i.v. infusion, edaravone 3 mg/kg i.v. 5 min before tail transection, average ± S.E., measured up to 30 min
Description: Via a cannula inserted into the femoral vein of each Wistar rat anesthetized with urethane (1.2 g/kg, i.p.), 1 mg/kg (1 mg=580000 IU; 4 mL/kg, 1 mL/hr) of physiological saline or t-PA was constantly infused. Fifty five minutes after the constant fusion was started, 3 mg of edaravone (3-methyl-1-phenyl-2-pyrazolin-5-one) or physiological saline was administered intravenously. Five minutes after that, the tail was transected at 2 mm from its tip immediately by using a razor. Every 15 seconds, the blood from the tail was blotted with a filter paper and the time until bleeding ceased was measured for up to 30 minutes.

[2] = test system: patients in the acute stage of cerebral infarction; test: Comparative Example: edaravone alone, modified ranking scale, patients in the acute stage of cerebral infarction; assay type: in vivo, human; conditions: edaravone used alone, within three months, from cited data
Description: Evaluation results of edaravone, when administered alone, in accordance with the modified ranking scale are included in Therapeutic Research, Vol. 19(4), 1333-1345, 1998.
Evaluation method and results: Edaravone (30 mg/20 ml) diluted with 100 ml of physiological saline was intravenously infused to 8 patients in the acute stage of cerebral infarction constantly for 14 days twice daily (morning and evening), each over 30 minutes. During the administration term of this medicament, administration of another medicament which might have an influence on the drug efficacy evaluation was avoided. Evaluation was made in accordance with the modified ranking scale three months after the initiation of the administration or upon discharge of the patient from the hospital within three months after the initiation of administration.

[3] = test system: patients in the acute stage of cerebral infarction; conditions: edaravone 30 mg i.v. twice daily for 14 days; evaluated three months after initiation or upon discharge within three months; cited from earlier work

Compound	Number of patients in Grade 0 (no symptoms), modified ranking scale [1]	Number of patients in Grade 1 (some symptoms but non-significant disability), modified ranking scale [1]	Number of patients in Grade 2 (slight disability), modified ranking scale [1]	Number of patients in Grade 3 (moderate disability), modified ranking scale [1]	Number of patients in Grade 4 (relatively severe disability), modified ranking scale [1]	Number of patients in Grade 5 (very severe disability), modified ranking scale [1]	Number of patients in Grade 6 (death), modified ranking scale [1]	Bleeding time (Wistar rat) [min]	Ratio of Grade 0 [2] [%]	Number of patients in Grade 0, modified ranking scale [3]	Number of patients in Grade 1 (some symptoms but non-significant disability), modified ranking scale [3]	Number of patients in Grade 2 (slight disability), modified ranking scale [3]	Number of patients in Grade 3, modified ranking scale [3]	Number of patients in Grade 4 (relatively severe disability), modified ranking scale [3]	Number of patients in Grade 5, modified ranking scale [3]	Number of patients in Grade 6, modified ranking scale [3]	Influence on bleeding time compared with the control group (physiological saline) (Wistar rat; t-PA 1 mg/kg, result in words)
CC1CNc2c(cccc2S(=O)(=O)N[C@@H](CCCNC(=N)N)C(=O)N2CC[C@@H](C)C[C@@H]2C(=O)O)C1 (mixture of isomers) [NOV, (2R, 4R)4-methyl-1-[N^2-((RS)-3-methyl-1,2,3,4-tetrahydro-8-quinolinesulfonyl)-L-arginyl]-2-piperidinecarboxylic acid monohydrate]	1	1	2	1	0	3	0										
CC1=NN(c2ccccc2)C(=O)C1 [Edaravone, 3-methyl-1-phenyl-2-pyrazolin-5-one]								11.55 ± 2.31	0	0	2	3	0	3	0	0	
O=C([O-])/C=C/c1ccc(Cn2ccnc2)cc1.[Na+] [OZA]	5	2	1	1	0	0	0										
t-PA: tissue plasminogen activator, thrombolytic agent; GRTPA (Mitsubishi Pharma Corporation) can be used								17.70 ± 2.85									prolonged the bleeding time significantly
